Data taken from patent US9452990B2, “Complement pathway modulators and uses thereof” (NOVARTIS AG, priority 2012, dated 2016).
Structures can show the parent of a compound that is named as a salt.

biological target: human complement factor B (CVF-Bb complex) (Homo sapiens (Human), UniProt P00751); assay: Human Complement Factor B ELISA Assay; type: biochemical; settings: not given
Experimental: Human Complement Factor B ELISA Assay
CVF-Bb complex prepared from purified cobra venom factor (1 μM), recombinant human complement factor B (expressed in drosophila cells and purified using standard methods) and human complement factor D (expressed in E. Coli, refolded and purified using standard methods). CVF-Bb complex at 3 nM concentration was incubated with test compound at various concentrations for 1 hour at room temperature in PBS pH 7.4 containing 10 mM MgCl2 and 0.05% (w/v) CHAPS. Human complement C3 substrate purified from plasma was added to a final concentration of 1 μM. After 1 hour incubation at room temperature, the enzyme reaction was stopped by addition of a cocktail of concentrated pan-protease inhibitors. The product of the reaction, C3a, was quantified by means of an enzyme-linked-immunosorbent assay. IC50 values were calculated from percentage of inhibition of CVF-Bb activity as a function of test compound concentration.

COc1cc2c(N)nc(N3CCN(C(=O)C[C@@H](N)c4ccc(F)cc4)C[C@@H]3c3ccccc3)nc2c(F)c1OC [Example 69, (R)-3-Amino-1-[(S)-4-(4-amino-8-fluoro-6,7-dimethoxy-quinazolin-2-yl)-3-phenyl-piperazin-1-yl]-3-(4-fluoro-phenyl)-propan-1-one hydrochloride] and CCC[C@H]1CN(C(=O)C[C@@H](N)c2ccc(C#N)cc2)CCN1c1nc(N)c2cc(OC)c(OC)c(F)c2n1 [Example 67, 4-{(R)-1-Amino-3-[(S)-4-(4-amino-8-fluoro-6,7-dimethoxy-quinazolin-2-yl)-3-propyl-piperazin-1-yl]-3-oxo-propyl}-benzonitrile hydrochloride] are within 1.5-fold of each other in IC50: 7 nM for the first, 10 nM for the second.

same assay, conditions: CVF-Bb complex 3 nM, 1 hour preincubation with compound at room temperature, human C3 substrate 1 μM, C3a quantified by ELISA; read-out: Factor B IC50

Going from COCCN[C@H](CC(=O)N1CCN(c2nc(N)c3cc(OC)c(OC)c(F)c3n2)CC1)c1ccc(F)cc1 [Example 100, (R)-1-[4-(4-Amino-8-fluoro-6,7-dimethoxy-quinazolin-2-yl)-piperazin-1-yl]-3-(4-fluoro-phenyl)-3-(2-methoxy-ethylamino)-propan-1-one] to [2H]C([2H])([2H])C([2H])([2H])N[C@H](CC(=O)N1CCN(c2nc(N)c3cc(OC)c(OC)c(F)c3n2)CC1)c1ccc(F)cc1 [Example 131, (R)-1-(4-(4-amino-8-fluoro-6,7-dimethoxyquinazolin-2-yl)piperazin-1-yl)-3-(1,1,2,2,2-d^5 ethylamino)-3-(4-fluorophenyl)propan-1-one], the IC50 falls from 20 nM to 3 nM (6.7-fold).

Going from COc1cc2c(N)nc(N3CCN(C(=O)/C=C/c4ccc(C#N)cc4)C[C@@H]3c3ccccc3)nc2c(F)c1OC [Example 10, 4-{(E)-3-[(S)-4-(4-Amino-8-fluoro-6,7-dimethoxy-quinazolin-2-yl)-3-phenyl-piperazin-1-yl]-3-oxo-propenyl}-benzonitrile] to COc1cc2c(N)nc(N3CCN(C(=O)/C=C/c4ccc(C#N)cc4)CC3)nc2c(F)c1OC [Example 2, 4-{(E)-3-[4-(4-Amino-8-fluoro-6,7-dimethoxy-quinazolin-2-yl)-piperazin-1-yl]-3-oxo-propenyl}-benzonitrile], the IC50 rises from 6 nM to 16 nM (2.7-fold). The first is the more potent here.

COc1cc2c(N)nc(N3C[C@@H](C)N(C(=O)C[C@@H](N)c4ccc(F)cc4)C[C@@H]3C)nc2c(F)c1OC [Example 74, (R)-3-amino-1-[(2R,5S)-4-(4-amino-8-fluoro-6,7-dimethoxy-quinazolin-2-yl)-2,5-dimethyl-piperazin-1-yl]-3-(4-fluorophenyl)-propan-1-one] and COCCOc1c(OC)cc2c(N)nc(N3CCN(C(=O)C[C@@H](N)c4ccc(C#N)cc4)C[C@@H]3C)nc2c1F [Example 71] are within 1.5-fold of each other in IC50: 50 nM for the first, 70 nM for the second.

First: COc1cc2c(N)nc(N3CCN(C(=O)C[C@H](c4ccc(F)cc4)N4CCCCC4)CC3)nc2c(F)c1OC [Example 99, (R)-1-[4-(4-Amino-8-fluoro-6,7-dimethoxy-quinazolin-2-yl)-piperazin-1-yl]-3-(4-fluoro-phenyl)-3-piperidin-1-yl-propan-1-one]
Second: COc1cc2c(N)nc(N3CCN(C(=O)C[C@@H](NC(C)C)c4ccc(F)c(C#N)c4)CC3)nc2c(F)c1OC [Example 91, (R)-5-(3-(4-(4-amino-8-fluoro-6,7-dimethoxyquinazolin-2-yl)piperazin-1-yl)-1-(isopropylamino)-3-oxopropyl)-2-fluorobenzonitrile]
The IC50 of the first is 2-fold lower: 6 nM for the first, 12 nM for the second.

Compared with COc1cc2c(N)nc(N3CCN(C(=O)c4cc5cc(C#N)ccc5[nH]4)CC3)nc2c(F)c1OC [Example 18, 2-[4-(4-Amino-8-fluoro-6,7-dimethoxy-quinazolin-2-yl)-piperazine-1-carbonyl]-1H-indole-5-carbonitrile], COc1cc2c(N)nc(N3CCN(C(=O)/C=C/C4CC4)CC3)nc2c(Cl)c1OC [Example 13, (E)-1-(4-(4-Amino-8-chloro-6,7-dimethoxyquinazolin-2-yl)piperazin-1-yl)-3-cyclopropylprop-2-en-1-one] is 52-fold higher in IC50: 20 nM for the first, 1050 nM for the second.
